Test results from patent US20120251551A1, “Substituted (Heteroarylmethyl)thiohydantoins” (BAYER PHARMA AKTIENGESELLSCHAFT, priority 2009, published 2012).
Changes are numbered by the printed parent chain.

How the values were obtained:
[1] = target: T1, wild-type human androgen receptor (Homo sapiens, UniProt P10275); assay: Cell-based transactivation assay for wild-type human androgen receptor (PC-3 cells, MMTV-luciferase reporter)
T1 construct: expressed in transfected cells
T1 sequence (P10275 1-920): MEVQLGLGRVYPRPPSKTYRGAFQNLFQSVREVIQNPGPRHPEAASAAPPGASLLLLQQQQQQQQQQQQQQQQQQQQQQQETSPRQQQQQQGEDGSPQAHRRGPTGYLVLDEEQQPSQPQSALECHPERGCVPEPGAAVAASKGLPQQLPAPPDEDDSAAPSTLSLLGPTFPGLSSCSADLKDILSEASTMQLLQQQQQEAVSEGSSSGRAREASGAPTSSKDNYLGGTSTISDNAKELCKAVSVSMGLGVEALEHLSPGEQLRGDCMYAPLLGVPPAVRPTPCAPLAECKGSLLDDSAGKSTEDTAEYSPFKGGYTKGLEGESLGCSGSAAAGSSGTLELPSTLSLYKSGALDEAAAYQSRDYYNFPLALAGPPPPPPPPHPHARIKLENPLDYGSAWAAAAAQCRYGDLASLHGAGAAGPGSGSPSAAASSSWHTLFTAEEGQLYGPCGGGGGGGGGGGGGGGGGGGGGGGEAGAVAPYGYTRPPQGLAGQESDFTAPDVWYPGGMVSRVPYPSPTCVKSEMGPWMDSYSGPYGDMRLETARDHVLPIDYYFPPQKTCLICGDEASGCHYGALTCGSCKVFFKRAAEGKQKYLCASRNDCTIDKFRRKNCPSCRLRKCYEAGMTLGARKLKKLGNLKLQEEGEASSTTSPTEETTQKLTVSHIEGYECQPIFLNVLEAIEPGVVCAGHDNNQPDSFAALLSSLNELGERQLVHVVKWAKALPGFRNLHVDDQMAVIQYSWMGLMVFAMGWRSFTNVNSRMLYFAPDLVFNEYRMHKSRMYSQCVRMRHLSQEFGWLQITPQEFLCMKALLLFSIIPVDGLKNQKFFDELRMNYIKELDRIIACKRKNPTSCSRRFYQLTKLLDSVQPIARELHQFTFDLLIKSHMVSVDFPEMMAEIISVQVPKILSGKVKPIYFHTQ
Experimental: Cell-Based Transactivation Assay for Wild-Type Human Androgen Receptor
PC-3 cells (Kaighn et al., Invest. Urol. 17:16-23, 1979) stably transfected with the human androgen receptor (Swiss-Prot Acc. No. P10275, Entry Version 159, Sequence Version 2) and a reporter plasmid based on pGL4.14 (#E6691, Promega Corporation, Madison, Wis., USA) containing the MMTV promoter (Cato et al., EMBO J. 6:363-8, 1987) were used. They were grown in 5% charcoal-stripped medium and seeded at a concentration of 1000 cells per well in a 384-well plate. For determination of antagonistic activity, the plate additionally contained the compound to be tested at a concentration range varying from 5.12×10^−12 to 1×10^−5 M. The assay was performed in presence of 1×10^−10 R1881 (also known as methyltrienolone). After overnight incubation at 37° C. in a 5% CO2 atmosphere, 15 μl of Steady Glo Lysis and Detection reagent (Steady Glo Luciferase assay system E2550 from Promega Corporation. Madison, Wis., USA) were added. IC50 was calculated for anti-androgenic activity as well as percentage inhibition in presence of 2 μM compound in comparison to non-stimulated luciferase signal. Agonistic activity was determined using the same concentration range of compound in the absence of R1881 by measuring Luciferase activity as above. EC50 was calculated for androgenic activity. Assay/read plates were used (Polystyrol; 384, NV-white cell culture plates; Perkin Elmer).

[2] = target: T2, human androgen receptor W741L mutant (Homo sapiens, UniProt P10275, W742L); assay: Cell-based transactivation assay for human androgen receptor mutant W741L
T2 construct: expressed in transfected cells; host or cells: PC-3 cells, transient transfection with a pSG5-derived plasmid
T2 sequence (P10275 1-920 W742L): T1 sequence (P10275 1-920) with W742L
Experimental: (§1) Cell-Based Transactivation Assay for Human Androgen Receptor Mutant W741L or W741C
(§2) PC-3 cells (Kaighn et al., Invest. Urol. 17:16-23, 1979) were grown in 5% charcoal-stripped medium and seeded at a concentration of 10000 cells per well in a 96-well plate. They were transiently transfected with a pSG5-derived plasmid (#216201 from Stratagene, La Jolla, Calif., USA) coding for the human androgen receptor W741L or W741C mutant Mara et al., Cancer Research, 63: 149-153, 2003) and an MMTV-Luciferase reporter plasmid based on pGL4.14 14 (#E6691, Promega Corporation, Madison, Wis., USA). The compound to be tested was added at a concentration range varying from 1×10^−9 to 1×10 M together with 1×10^−10 R1881. After 24 h incubation at 37° C. in a 5% CO2 atmosphere, 100 μl of Steady Glo Lysis and Detection reagent (Steady Glo Luciferase assay system E2550 from Promega Corporation. Madison, Wis., USA) were added. Antagonistic activity was determined by measuring Luciferase activity in a Victor 3 Luminometer (PerkinElmer, Waltham, Mass., USA) using the Steady Glo Luciferase Assay (E2550, Promega). IC50 values were calculated for anti-androgenic activity.

[3] = Determination of metabolic stability in vitro (calculation of hepatic in vivo blood clearance); format: in vitro ADME; details: pH 7.4, human liver microsomes, calculated from half-life, read-out: calculated hepatic in vivo blood clearance (CL) (converted)
Experimental: Determination of Metabolic Stability In Vitro (Including Calculation of Hepatic In Vivo Blood Clearance (CL) and of Maximal Oral Bioavailability (Fmax))
The metabolic stability of test compounds in vitro was determined by incubating them at 1 μM with a suspension of human liver microsomes in 100 mM phosphate buffer, pH7.4 (NaH2PO4×H2O+Na2HPO4×2H2O) at a protein concentration of 0.5 mg/ml and at 37° C. The reaction was activated by adding a co-factor mix containing 1.2 mg NADP, 3 IU glucose-6-phosphate dehydrogenase, 14.6 mg glucose-6-phosphate and 4.9 mg MgCl2 in phosphate buffer, pH 7.4. Organic solvent in the incubations was limited to <0.2% dimethylsulfoxide (DMSO) and <1% methanol. During incubation, the microsomal suspensions were continuously shaken and aliquots were taken at 2, 8, 16, 30, 45 and 60 min, to which equal volumes of cold methanol were immediately added. Samples were freezed at −20° C. over night, subsequently centrifuged for 15 minutes at 3000 rpm and the supernatant was analyzed with an Agilent 1200 HPLC-system with LCMS/MS detection.
The half-life of a test compound was determined from the concentration-time plot. From the half-life the intrinsic clearances were calculated. Together with the additional parameters liver blood flow, specific liver weight and microsomal protein content the hepatic in vivo blood clearance (CL) and the maximal oral bioavailability (Fmax) were calculated for the different species. The following parameter values were used: Liver blood flow—1.3 l/h/kg human; specific liver weight—21 g/kg human; microsomal protein content—40 mg/g.
With the described assay only phase-I metabolism of microsomes is reflected, e.g. typically oxidoreductive reactions by cytochrome P450 enzymes and flavin mono-oxygenases (FMO) and hydrolytic reactions by esterases (esters and amides).

LNCaP cells = assay: Proliferation assay with LNCaP cells; format: cell-based; details: Homo sapiens, 168 h, R1881 (1×10^−10) stimulated growth, day 7, read-out: inhibition IC50 (LNCaP)
Experimental: Proliferation Assay with LNCaP Cells
LNCaP cells (Horoszewicz et al., in “Models for Prostate Cancer” (ed. G. P. Murphy), Alan R. Liss, New York 1981, p. 115-132; Horoszewicz et al., Cancer Res. 43:1809-1818, 1983) were seeded at 2000 cells/well in 96-well plates in RPMI (F1235, Biochrom AG, Berlin, Germany) without phenol red supplemented with 5% charcoal-stripped serum. After 3 days, the cells were treated with R1881) (1×10^−10) and compound (day 0). Cell number was determined by Alamar Blue (DAL1100, Invitrogen, Life Technologies, Lohne, Germany) staining (2.5 h) at day 0 and day 7. Fluorescence was determined in Victor3 (Excitation 530 nm; emission 590 nm). Stimulated growth was defined as the signal measured at day 7 for cells treated only with R1881. Basal level was defined as the signal measured at day 7 for cells grown without R1881.

[4] = target: T3, human androgen receptor W741C mutant (Homo sapiens, UniProt P10275, W742C); assay: Cell-based transactivation assay for human androgen receptor mutant W741C
T3 construct: expressed in transfected cells; host or cells: PC-3 cells, transient transfection with a pSG5-derived plasmid
T3 sequence (P10275 1-920 W742C): T1 sequence (P10275 1-920) with W742C
Experimental: as §1, §2

VCaP cells = assay: Proliferation assay with VCaP cells; format: cell-based; details: Homo sapiens, 168 h, R1881 (1×10^−10) stimulated growth, day 7, read-out: Antiproliferative activity VCaP IC50
Experimental: Proliferation Assay with VCaP Cells
VCaP cells ((Korenchuk et al., In Vivo 15: 163-168, 2001)) were seeded at 16 000 cells/well in 96-well plates in DMEM (F0445, Biochrom AG, Berlin, Germany) with phenol red supplemented with 10% charcoal-stripped serum. After 1 day, the cells were treated with R1881 (1×10^−10) and compound (day 0). Cell number was determined by Alamar Blue (DAL1100, Invitrogen, Life Technologies, Lohne, Germany) staining (2.5 h) at day 0 and day 7. Fluorescence was determined in Victor3 (Excitation 530 nm; emission 590 nm). Stimulated growth was defined as the signal measured at day 7 for cells treated only with R1881. Basal level was defined as the signal measured at day 7 for cells grown without R1881.

Which results are given for `CC1(C)C(=O)N(c2ccc(C#N)c(C(F)(F)F)c2)C(=S)N1Cc1cnc(-n2ccnc2)nc1` [Example 17, 4-(3-{[2-(1H-Imidazol-1-yl)pyrimidin-5-yl]methyl}-4,4-dimethyl-5-oxo-2-thioxoimidazolidin-1-yl)-2-(trifluoromethyl)benzonitrile]?
EC50 [1]: > 10000 nM; IC50 [2]: 20.6 nM; CLhep predicted at 1 µM [3]: 1.5 mL/min/kg

With `Cn1cc(-c2ccc(CN3C(=S)N(c4ccc(C#N)c(C(F)(F)F)c4)C(=O)C3(C)C)cn2)cn1` [Example 18, 4-(4,4-Dimethyl-3-{[6-(1-methyl-1H-pyrazol-4-yl)pyridin-3-yl]methyl}-5-oxo-2-thioxoimidazolidin-1-yl)-2-(trifluoromethyl)benzonitrile] as the molecule, how does the EC50 [1] read?
The EC50 was 9570 nM.

What about the IC50 [2] of the same molecule?
The IC50 was 94.6 nM.

And the IC50 (LNCaP cells)?
The IC50 was 117 nM.

What about the CLhep predicted at 1 µM [3] of the same molecule?
Its CLhep predicted at 1 µM is 1.83 mL/min/kg.

Which EC50 [1] does the source give for `Cc1cn(-c2ccc(CN3C(=S)N(c4ccc(C#N)c(C(F)(F)F)c4)C(=O)C3(C)C)cn2)cn1` [Example 19, 4-(4,4-Dimethyl-3-{[6-(4-methyl-1H-imidazol-1-yl)pyridin-3-yl]methyl}-5-oxo-2-thioxoimidazolidin-1-yl)-2-(trifluoromethyl)benzonitrile] here?
Its EC50 is greater than 10000 nM.

What about the IC50 [2] of the same molecule?
Its IC50 is 201 nM.

What about the IC50 [4] of the same molecule?
Its IC50 is 52.9 nM.

And the IC50 (LNCaP cells)?
The IC50 was 96 nM.

For `Cn1nccc1-c1ccc(CN2C(=S)N(c3ccc(C#N)c(C(F)(F)F)c3)C(=O)C2(C)C)cn1` [Example 20, 4-(4,4-Dimethyl-3-{[6-(1-methyl-1H-pyrazol-5-yl)pyridin-3-yl]methyl}-5-oxo-2-thioxoimidazolidin-1-yl)-2-(trifluoromethyl)benzonitrile], which EC50 [1] is on record?
The EC50 was greater than 10000 nM.

And the IC50 [2]?
Its IC50 is 233 nM.

What about the IC50 [4] of the same molecule?
The IC50 was 99.9 nM.

And the IC50 (LNCaP cells)?
Its IC50 is 46 nM.

Which EC50 [1] does the source give for `Cc1nc(Cl)cn1-c1ccc(CN2C(=S)N(c3ccc(C#N)c(C(F)(F)F)c3)C(=O)C2(C)C)cn1` [Example 21, 4-(3-{[6-(4-Chloro-2-methyl-1H-imidazol-1-yl)pyridin-3-yl]methyl}-4,4-dimethyl-5-oxo-2-thioxoimidazolidin-1-yl)-2-(trifluoromethyl)benzonitrile] here?
Its EC50 is greater than 10000 nM.

What about the IC50 [2] of the same molecule?
The IC50 was 296 nM.

What about the CLhep predicted at 1 µM [3] of the same molecule?
Its CLhep predicted at 1 µM is 6.67 mL/min/kg.

Which results are given for `CC1(C)C(=O)N(c2ccc(C#N)c(C(F)(F)F)c2)C(=S)N1Cc1ccc(-n2cnc(C(F)(F)F)c2)nc1` [Example 23, 4-[4,4-Dimethyl-5-oxo-2-thioxo-3-({6-[4-(trifluoromethyl)-1H-imidazol-1-yl]pyridin-3-yl}methyl)imidazolidin-1-yl]-2-(trifluoromethyl)benzonitrile]?
EC50 [1]: > 10000 nM; IC50 [2]: 83 nM; IC50 [4]: 148 nM; IC50 (LNCaP cells): 160 nM; IC50 (VCaP cells): 340 nM

Which EC50 [1] does the source give for `CC1(C)C(=O)N(c2ccc(C#N)c(C(F)(F)F)c2)C(=S)N1Cc1ccc(-c2cccs2)nc1` [Example 24, 4-(4,4-Dimethyl-5-oxo-3-{[6-(thien-2-yl)pyridin-3-yl]methyl}-2-thioxoimidazolidin-1-yl)-2-(trifluoromethyl)benzonitrile] here?
Its EC50 is greater than 10000 nM.

What about the IC50 [2] of the same molecule?
The IC50 was 202 nM.

And the CLhep predicted at 1 µM [3]?
Its CLhep predicted at 1 µM is 6.67 mL/min/kg.
